Results published in patent US11254680B2, “Cyclic iminopyrimidine derivatives as kinase inhibitors” (ABM Therapeutics Corporation, priority 2017, dated 2022).

System: A375 melanoma cells
Assay: Antiproliferation assay in A375 cell line by CellTiter Glo
Type: cell-based
Settings: Homo sapiens, A-375, 72 hours or 144 hours
Description: In vitro anti-proliferation study of test compounds in A375 cell line by CellTiter Glo. The cells were routinely maintained as a monolayer culture in corresponding culture medium, at 37° C. with 5% CO2 in air.
Harvest the exponential growth cells by trypsin-EDTA digestion. Re-suspend the cell pellet in fresh culture medium, and adjust the concentration to needed (the cell density per well was listed in following form). The cell viability is over 98% by Trypan blue staining. Inoculate cells into 96 wells plates according to the plate map (90 μL/well). Incubate the plates at 37° C. and 5% CO2 overnight. The next day, prepare the 10×compound containing medium according to the plate map. Transfer 10 μL of 10×compound containing medium into each well of the assay plates (the final DMSO concentration is 0.5%). Gently mix the medium and incubate at 37° C. and 5% CO2 for another 72 hours or 144 hours.
Prepare the reagent according to the manufacture's instruction. Add 50 μL CellTiter-Glo Reagent in each well. Mix contents for 2 minutes on an orbital shaker to induce cell lysis. Allow the plate to incubate at room temperature for 10 minutes to stabilize luminescent signal. Transfer 100 μL of reaction contents of each well from the clear plates into white walled/white opaque 96-well plates. Record the luminescence on Envision.
Using the luminescence measurements [time zero (T0), control growth (C), and test growth in the presence of drug at the six concentration levels (Ti)], the percentage growth is calculated at each of the drug concentrations levels.
Percentage growth inhibition (GI) is calculated as: GI (%)═[(Ti-T0)/(C-T0)]×100 for concentrations for which Ti>=T0, and GI (%)═[(Ti-T0)/T0]×100 for concentrations for which Ti<T0. Data were analyzed using the XLFit (Excel) tool, fitting to a 4-parameter equation to generate concentration response curves. Concentration of compound that inhibits 50% of control cell growth (GI50) was back-interpolated when y=50% of net growth of DMSO treated control wells using nonlinear regression with the equation: f(x) 205 [fit=(A+((B−A)/(1+((C/x)^))))], where A is the minimum response (Ymin), B is the maximum response (Ymax), C is the inflection point of the curve (Re GI50) and D is the Hill coefficient. Growth inhibition of 50% (GI50) was calculated at the 50% Growth inhibition on the curve. Index values were the sum of Inhibition rate (IR) at each tested compound concentration.

SMILES | GI50
CCCS(=O)(=O)Nc1c(F)cc(F)c(Oc2ccc3c(c2)C2=NCCN2C=N3)c1C#N [Compound 4, N-(2-Cyano-3-((2,3-dihydroimidazo[1,2-c]quinazolin-9-yl)oxy)-4,6-difluorophenyl)propane-1-sulfonamide] | 100 to 1000 nM
CCCS(=O)(=O)Nc1ccc([N+](=O)[O-])c(Oc2ccc3c(c2)C2=NCCN2C=N3)c1F [Compound 7, N-(3-((2,3-Dihydroimidazo[1,2-c]quinazolin-9-yl)oxy)-2-fluoro-4-nitrophenyl)propane-1-sulfonamide] | > 1000 nM
CCCS(=O)(=O)Nc1ccc(N)c(Oc2ccc3c(c2)C2=NCCN2C=N3)c1F [Compound 8, N-(4-Amino-3-((2,3-dihydroimidazo[1,2-c]quinazolin-9-yl)oxy)-2-fluorophenyl)propane-1-sulfonamide] | > 1000 nM
CCCS(=O)(=O)Nc1ccc(F)c(Oc2ccc3c(c2)C2=NCCN2C=N3)c1F [Compound 10, N-(3-((2,3-Dihydroimidazo[1,2-c]quinazolin-9-yl)oxy)-2,4-difluorophenyl)propane-1-sulfonamide] | > 1000 nM
CCCS(=O)(=O)Nc1cccc(Oc2ccc3c(c2)C2=NCCN2C=N3)c1N [Compound 13, N-(2-Amino-3-((2,3-dihydroimidazo[1,2-c]quinazolin-9-yl)oxy)phenyl)propane-1-sulfonamide] | > 1000 nM
CCCS(=O)(=O)Nc1c([N+](=O)[O-])ccc(Oc2ccc3c(c2)C2=NCCCN2C=N3)c1F [Compound 19, N-(3-((3,4-Dihydro-2H-pyrimido[1,2-c]quinazolin-10-yl)oxy)-2-fluoro-6-nitrophenyl)propane-1-sulfonamide] | > 1000 nM
CCCS(=O)(=O)Nc1c(N)ccc(Oc2ccc3c(c2)C2=NCCCN2C=N3)c1F [Compound 20, N-(6-Amino-3-((3,4-dihydro-2H-pyrimido[1,2-c]quinazolin-10-yl)oxy)-2-fluorophenyl)propane-1-sulfonamide] | > 1000 nM
CCCS(=O)(=O)Nc1ccnc(Oc2ccc3c(c2)C2=NCCCN2C=N3)c1[N+](=O)[O-] [Compound 22, N-(2-((3,4-Dihydro-2H-pyrimido[1,2-c]quinazolin-10-yl)oxy)-3-nitropyridin-4-yl)propane-1-sulfonamide] | > 1000 nM
CCCS(=O)(=O)Nc1nccc(Oc2ccc3c(c2)C2=NCCCN2C=N3)c1C#N [Compound 24, N-(3-Cyano-4-((3,4-dihydro-2H-pyrimido[1,2-c]quinazolin-10-yl)oxy)pyridin-2-yl)propane-1-sulfonamide] | > 1000 nM
CCCS(=O)(=O)Nc1ccnc(Oc2ccc3c(c2)C2=NCCCN2C=N3)c1C#N [Compound 25, N-(3-Cyano-2-((3,4-dihydro-2H-pyrimido[1,2-c]quinazolin-10-yl)oxy)pyridin-4-yl)propane-1-sulfonamide] | > 1000 nM
CCCS(=O)(=O)Nc1cccc(Oc2cc3c(cn2)N=CN2CCCN=C32)c1C#N [Compound 27, N-(2-Cyano-3-((3,4-dihydro-2H-pyrido[4,3-e]pyrimido[1,2-c]pyrimidin-10-yl)oxy)phenyl)propane-1-sulfonamide] | 100 to 1000 nM
CCCS(=O)(=O)Nc1cccc(Oc2ccc3c(c2)C2=NCCCCN2C=N3)c1C#N [Compound 28, N-(2-Cyano-3-((2,3,4,5-tetrahydro-[1,3]diazepino[1,2-c]quinazolin-11-yl)oxy)phenyl)propane-1-sulfonamide] | > 1000 nM
O=S(=O)(CCCO)Nc1cccc(Oc2ccc3c(c2)C2=NCCCN2C=N3)c1Cl [Compound 39, N-(2-Chloro-3-((3,4-dihydro-2H-pyrimido[1,2-c]quinazolin-10-yl)oxy)phenyl)-3-hydroxypropane-1-sulfonamide] | 100 to 1000 nM
CCCS(=O)(=O)Nc1cccc(N(C)c2cc3c(cn2)N=CN2CCCN=C32)c1C#N [Compound 42, N-(2-Cyano-3-((3,4-dihydro-2H-pyrido[4,3-e]pyrimido[1,2-c]pyrimidin-10-yl)(methyl)amino)phenyl)propane-1-sulfonamide] | > 1000 nM
CCCS(=O)(=O)Nc1cccc(Nc2cc3c(cn2)N=CN2CCCN=C32)c1C#N [Compound 43, N-(2-Cyano-3-((3,4-dihydro-2H-pyrido[4,3-e]pyrimido[1,2-c]pyrimidin-10-yl)amino)phenyl)propane-1-sulfonamide] | 100 to 1000 nM
CCN(C)S(=O)(=O)Nc1cccc(Oc2ccc3c(c2)C2=NCCN2C=N3)c1Cl [Compound 45, N-(2-Chloro-3-((2,3-dihydroimidazo[1,2-c]quinazolin-9-yl)oxy)phenyl)-N-ethyl-N-methylamino-1-sulfonamide] | > 1000 nM
O=S(=O)(Nc1cc(Oc2ccc3c(c2)C2=NCCN2C=N3)ccc1F)N1CCCC1 [Compound 49, N-(5-((2,3-Dihydroimidazo[1,2-c]quinazolin-9-yl)oxy)-2-fluorophenyl)pyrrolidine-1-sulfonamide] | > 1000 nM
CCCS(=O)(=O)Nc1cc(Oc2ccc3c(c2)C2=NCCN2C=N3)ccc1F [Compound 51, N-(5-((2,3-Dihydroimidazo[1,2-c]quinazolin-9-yl)oxy)-2-fluorophenyl)propane-1-sulfonamide] | > 1000 nM
CCCS(=O)(=O)Nc1cccc(Oc2ccc3c(c2)C2=NC(C)(C)CN2C=N3)c1Cl [Compound 55, N-(2-Chloro-3-((2,2-dimethyl-2,3-dihydroimidazo[1,2-c]quinazolin-9-yl)oxy)phenyl)propane-1-sulfonamide] | < 100 nM

The remaining lines, values ahead:

GI50 | SMILES
< 100 nM | O=S(=O)(CCCF)Nc1cccc(Oc2ccc3c(c2)C2=NCCCN2C=N3)c1Cl [Compound 38, N-(2-Chloro-3-((3,4-dihydro-2H-pyrimido[1,2-c]quinazolin-10-yl)oxy)phenyl)-3-fluoropropane-1-sulfonamide]
< 100 nM | O=S(=O)(Nc1cccc(Oc2ccc3c(c2)C2=NCCCN2C=N3)c1Cl)N1CC[C@@H](F)C1 [Compound 40, (R)—N-(2-Chloro-3-((3,4-dihydro-2H-pyrimido[1,2-c]quinazolin-10-yl)oxy)phenyl)-3-fluoropyrrolidine-1-sulfonamide]
< 100 nM | CCN(C)S(=O)(=O)Nc1cccc(Oc2ccc3c(c2)C2=NCCCN2C=N3)c1Cl [Compound 41, N-(2-Chloro-3-((3,4-dihydro-2H-pyrimido[1,2-c]quinazolin-10-yl)oxy)phenyl)-N-ethyl-N-methylamino-1-sulfonamide]
< 100 nM | CC(C)S(=O)(=O)Nc1cccc(Oc2ccc3c(c2)C2=NCCN2C=N3)c1Cl [Compound 44, N-(2-Chloro-3-((2,3-dihydroimidazo[1,2-c]quinazolin-9-yl)oxy)phenyl)propane-2-sulfonamide]
< 100 nM | CN(CCF)S(=O)(=O)Nc1cccc(Oc2ccc3c(c2)C2=NCCN2C=N3)c1Cl [Compound 47, N-(2-Chloro-3-((2,3-dihydroimidazo[1,2-c]quinazolin-9-yl)oxy)phenyl)-(2-fluoroethyl)(methyl)amino-1-sulfonamide]
< 100 nM | O=S(=O)(Nc1cccc(Oc2ccc3c(c2)C2=NCCN2C=N3)c1Cl)N1CCCC1 [Compound 48, N-(2-Chloro-3-((2,3-dihydroimidazo[1,2-c]quinazolin-9-yl)oxy)phenyl)pyrrolidine-1-sulfonamide]
< 100 nM | CC1(C)CN2C=Nc3ccc(Oc4cccc(NS(=O)(=O)N5CC[C@@H](F)C5)c4Cl)cc3C2=N1 [Compound 53, (R)—N-(2-Chloro-3-((2,2-dimethyl-2,3-dihydroimidazo[1,2-c]quinazolin-9-yl)oxy)phenyl)-3-fluoropyrrolidine-1-sulfonamide]
< 100 nM | CC1(C)CN2C=Nc3ccc(Oc4cccc(NS(=O)(=O)N5CCCC5)c4Cl)cc3C2=N1 [Compound 54, N-(2-Chloro-3-((2,2-dimethyl-2,3-dihydroimidazo[1,2-c]quinazolin-9-yl)oxy)phenyl)pyrrolidine-1-sulfonamide]
